Test results published in US20240132484A1, “BROAD SPECTRUM ANTIVIRAL COMPOUNDS TARGETING THE SKI COMPLEX” (priority 2020, published 2024).

Test system: Influenza virus
Assay: organism not typed
Type: cell-based, influenza A virus
Details: for Avg PFU/ml: average of first and second experiment; for Influenza virus titer, 10 μM / Influenza virus titer, 50 μM: upper part of table (FIG. 5 data); for Influenza virus titer, 10 μM / Influenza virus titer, 50 μM / Flu titer (pfu/ml): plaque assay

Structure (SMILES) | first experiment (10 μM screen) [PFU/ml] | second experiment (10 μM screen) [PFU/ml] | Avg PFU/ml (10 μM screen) [PFU/ml] | Influenza virus titer, 10 μM (10 μM) [PFU/virus/ml] | first experiment PFU/ml (50 μM screen) [PFU/ml] | second experiment PFU/ml (50 μM screen) [PFU/ml] | Avg PFU/ml (50 μM screen) [PFU/ml] | Influenza virus titer, 50 μM [PFU/virus/ml] | Flu titer (pfu/ml) (1 μM compound, A549 cells) | Flu titer (pfu/ml) (10 μM compound, A549 cells) | Flu titer (pfu/ml) (50 μM compound, A549 cells) | also measured
COc1ccc(CNCC2CCCCC2)c(OCC(O)CN2CCN(C)CC2)c1 (stereo not shown) [Compound 18-5] | 60000 | 500 | 30250 | 60000 | 2100 | 400 | 1250 | 2100 |  |  |  | 
COCCCNCc1ccc(OC)cc1OCC(O)CN1CCN(C)CC1 (stereo not shown) [Compound 18-11] | 100000 | 39000 | 69500 | 100000 | 160000 | 31000 | 95500 | 160000 |  |  |  | 
COc1ccc(CNCCc2ccccc2Cl)c(OCC(O)CN2CCN(C)CC2)c1 (stereo not shown) [Compound 18-4] | 7000 | 800 | 3900 | 7000 | 1100 | 300 | 700 | 1100 |  |  |  | 
COc1ccc(CNCCc2ccccc2F)c(OCC(O)CN2CCN(C)CC2)c1 (stereo not shown) [Compound 96509034, 1-[2-({[2-(2-fluorophenyl)ethyl]amino}methyl)-5-methoxyphenoxy]-3-(4-methyl-1-piperazinyl)-2-propanol] |  |  |  |  |  |  |  |  | 10000 | 4000 | 5000 | 
OCCN(Cc1nc(Cc2cccc(C(F)(F)F)c2)no1)CC12CC3CC(CC(C3)C1)C2 [Compound 61121342, 2-[(1-adamantylmethyl)({3-[3-(trifluoromethyl)benzyl]-1,2,4-oxadiazol-5-yl}methyl)amino]ethanol] |  |  |  |  |  |  |  |  | 9000 | 130000 | 50000 | 
COc1ccc(OC)c(Cc2nnc(CCC(=O)NC3CC(C)(C)CC(C)(C)C3)o2)c1 [Compound 35434810, 3-[5-(2,5-dimethoxybenzyl)-1,3,4-oxadiazol-2-yl]-N-(3,3,5,5-tetramethylcyclohexyl)propanamide] |  |  |  |  |  |  |  |  | 80000 | 80000 | 130000 | 
COc1ccccc1Cn1cc(C(=O)NCCC2=CCCCC2)c(=O)c(C(=O)N(CCO)C(C)C)c1 [Compound 55345532, N′-[2-(1-cyclohexen-1-yl)ethyl]-N-(2-hydroxyethyl)-N-isopropyl-1-(2-methoxybenzyl)-4-oxo-1,4-dihydro-3,5-pyridinedicarboxamide] |  |  |  |  |  |  |  |  | 55000 | 70000 | 34000 | 
COc1ccc(CNCCc2ccccc2)c(OCC(O)CN2CCN(C)CC2)c1 (stereo not shown) [Compound 18-6] | 10000 | 500 | 5250 | 10000 | 1300 | 300 | 800 | 1300 |  |  |  | 
CCCCC(=O)Nc1cccc(NC(=O)COc2ccc(C3CCCCC3)cc2)c1 [Compound 7973169, N-(3-{[2-(4-cyclohexylphenoxy)acetyl]amino}phenyl)pentanamide] |  |  |  |  |  |  |  |  | 101000 | 66000 | 110000 | 
COc1ccc(CNC2CCCC2)c(OCC(O)CN2CCN(C)CC2)c1 (stereo not shown) [Compound 18-1] | 60000 | 19000 | 39500 | 60000 | 2200 | 1400 | 1800 | 2200 |  |  |  | 
COc1ccc(CNC2CCCCC2)c(OCC(O)CN2CCN(C)CC2)c1 (stereo not shown) [Compound 18-10] | 40000 | 2600 | 21300 | 40000 | 16000 | 1900 | 8950 | 16000 |  |  |  | 
O=C(CN1CC(c2ccccc2)CC1=O)NCc1nnc(SCC2CCCCC2)n1-c1ccc(F)cc1 (stereo not shown) [Compound 68125364, N-{[5-[(cyclohexylmethyl)thio]-4-(4-fluorophenyl)-4H-1,2,4-triazol-3-yl]methyl}-2-(2-oxo-4-phenyl-1-pyrrolidinyl)acetamide] |  |  |  |  |  |  |  |  | 72000 | 62000 | 79000 | 
COc1ccc(CNCCCn2cccn2)c(OCC(O)CN2CCN(C)CC2)c1 (stereo not shown) [Compound 18-13] | 40000 | 20000 | 30000 | 40000 | 80000 | 110000 | 95000 | 80000 |  |  |  | 
COCCO[C@H]1[C@H](NC(=O)C(C)C)c2ccccc2C12CCN(C(=O)Cn1nc(C)cc1C)CC2 (relative stereo) [Compound 27046321, N-[(2R*,3R*)-1′-[(3,5-dimethyl-1H-pyrazol-1-yl)acetyl]-2-(2-methoxyethoxy)-2,3-dihydrospiro[indene-1,4′-piperidin]-3-yl]-2-methylpropanamide] |  |  |  |  |  |  |  |  | 110000 | 74000 | 87000 | 
CC1=C(C(=O)OC2CCCCCCC2)C(c2ccc3c(c2)OCO3)NC(=O)N1 (stereo not shown) [UMB115] |  |  |  |  |  |  |  |  |  |  |  | 10 μM treatment, Average (10 μM treatment, average of replicates): 3500; 10 μM treatment (10 μM treatment, replicate 2): 5000; 50 μM treatment Average (50 μM compound, average of replicates): 0; 50 μM treatment (50 μM compound, replicate 1, DMSO (0.5%) control run per batch): 0; 50 μM treatment (50 μM compound, replicate 2): 0
COc1ccc(CNCCCn2ccnc2)c(OCC(O)CN2CCN(C)CC2)c1 (stereo not shown) [Compound 18-15] | 16000 | 8000 | 12000 | 36000 | 70000 | 1000 | 35500 | 30000 |  |  |  | 
COc1ccc(NC(=O)c2ccccc2OCC(=O)NC2CCCCC2)c([N+](=O)[O-])c1 [Compound 7900806, 2-[2-(cyclohexylamino)-2-oxoethoxy]-N-(4-methoxy-2-nitrophenyl)benzamide] |  |  |  |  |  |  |  |  | 77000 | 60000 | 54000 | 
COc1ccc(CNCCc2ccccc2F)c(OCC(O)CN2CCN(C)CC2)c1 (stereo not shown) [UMBCADD-0018, 1-[2-({[2-(2-fluorophenyl)ethyl]amino}methyl)-5-methoxyphenoxy]-3-(4-methyl-1-piperazinyl)-2-propanol] |  |  |  |  |  |  |  |  |  |  |  | inhibition of Influenza virus replication (10 μM, A549 cells): over 20 fold; antiviral activity against IAV infection (screening, A549 cells): effective at 50 μM, 10 μM and 1 μM
CCN1CCN(CC(O)COc2cccc(CN(C)Cc3cc(C)no3)c2)CC1 (stereo not shown) [Compound 77921510, 1-(4-ethyl-1-piperazinyl)-3-[3-({methyl[(3-methyl-5-isoxazolyl)methyl]amino}methyl)phenoxy]-2-propanol] |  |  |  |  |  |  |  |  | 72000 | 90000 | 26000 | 
COc1ccc(CNCCCSC)c(OCC(O)CN2CCN(C)CC2)c1 (stereo not shown) [Compound 18-16] | 210000 | 18000 | 114000 | 21000 | 30000 | 2300 | 16150 | 90000 |  |  |  | 
CCN(CC)CCNCc1ccccc1OCC(O)CN1CCSCC1 (stereo not shown) [Compound 86006211, 1-[2-({[2-(diethylamino)ethyl]amino}methyl)phenoxy]-3-(4-thiomorpholinyl)-2-propanol] |  |  |  |  |  |  |  |  | 70000 | 60000 | 12000 | 
